PubChem BioAssay (NCI)
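How tested: cells in 96-well plates exposed to compound for 48 hours at five concentrations. TGI marks complete inhibition of growth.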

Tests used:
Test in all cases: DTP human tumour cell line panel, 48 h
OVCAR-3 ovarian = test system: OVCAR-3 ovarian
OVCAR-8 ovarian = test system: OVCAR-8 ovarian
SK-MEL-28 melanoma = test system: SK-MEL-28 melanoma
MDA-N = test system: MDA-N
NCI/ADR-RES ovarian = test system: NCI/ADR-RES ovarian
SK-MEL-2 melanoma = test system: SK-MEL-2 melanoma
SK-MEL-5 melanoma = test system: SK-MEL-5 melanoma
SF-539 CNS = test system: SF-539 CNS
HCT-116 colon = test system: HCT-116 colon
UACC-62 melanoma = test system: UACC-62 melanoma
HOP-62 NSCLC = test system: HOP-62 NSCLC
K-562 leukemia = test system: K-562 leukemia
A498 renal = test system: A498 renal
IGROV1 ovarian = test system: IGROV1 ovarian
786-0 renal = test system: 786-0 renal
EKVX NSCLC = test system: EKVX NSCLC
SNB-75 CNS = test system: SNB-75 CNS
KM12 colon = test system: KM12 colon
CAKI-1 renal = test system: CAKI-1 renal
COLO 205 colon = test system: COLO 205 colon
OVCAR-4 ovarian = test system: OVCAR-4 ovarian
PC-3 prostate = test system: PC-3 prostate
BT-549 breast = test system: BT-549 breast
SK-OV-3 ovarian = test system: SK-OV-3 ovarian
HS 578T breast = test system: HS 578T breast
DU-145 prostate = test system: DU-145 prostate
LOX IMVI melanoma = test system: LOX IMVI melanoma
RPMI-8226 leukemia = test system: RPMI-8226 leukemia
SNB-19 CNS = test system: SNB-19 CNS
SF-295 CNS = test system: SF-295 CNS
A549 NSCLC = test system: A549 NSCLC
NCI-H23 lung = test system: NCI-H23 lung
CCRF-CEM leukemia = test system: CCRF-CEM leukemia
HCT-15 colon = test system: HCT-15 colon
MDA-MB-231 breast = test system: MDA-MB-231 breast
HT29 colon = test system: HT29 colon
NCI-H460 lung = test system: NCI-H460 lung
MCF7 breast = test system: MCF7 breast
ACHN renal = test system: ACHN renal
HL-60(TB) leukemia = test system: HL-60(TB) leukemia
NCI-H226 lung = test system: NCI-H226 lung
TK-10 renal = test system: TK-10 renal
T-47D breast = test system: T-47D breast
U251 CNS = test system: U251 CNS
MOLT-4 leukemia = test system: MOLT-4 leukemia
OVCAR-5 ovarian = test system: OVCAR-5 ovarian
SW-620 colon = test system: SW-620 colon
NCI-H522 lung = test system: NCI-H522 lung
SF-268 CNS = test system: SF-268 CNS
RXF 393 renal = test system: RXF 393 renal
SN12C renal = test system: SN12C renal
M14 melanoma = test system: M14 melanoma
UACC-257 melanoma = test system: UACC-257 melanoma
MDA-MB-435 = test system: MDA-MB-435
UO-31 renal = test system: UO-31 renal
HOP-92 NSCLC = test system: HOP-92 NSCLC
MALME-3M melanoma = test system: MALME-3M melanoma
HCC-2998 colon = test system: HCC-2998 colon

## COc1ccc2c(c1)O[C@@H]1C(O)Oc3cc(OC)c(OC)cc3[C@]1(O)C2=O (stereo partly drawn)
OVCAR-3 ovarian
  TGI: > 100 µM
OVCAR-8 ovarian
  TGI: > 100 µM
SK-MEL-28 melanoma
  TGI: > 100 µM
MDA-N
  TGI: > 100 µM
NCI/ADR-RES ovarian
  TGI: > 100 µM
SK-MEL-2 melanoma
  TGI: > 100 µM
SK-MEL-5 melanoma
  TGI: 72.4 µM
SF-539 CNS
  TGI: > 100 µM
HCT-116 colon
  TGI: > 100 µM
UACC-62 melanoma
  TGI: > 100 µM
HOP-62 NSCLC
  TGI: > 100 µM
K-562 leukemia
  TGI: > 100 µM
A498 renal
  TGI: > 100 µM
IGROV1 ovarian
  TGI: > 100 µM
786-0 renal
  TGI: > 100 µM
EKVX NSCLC
  TGI: > 100 µM
SNB-75 CNS
  TGI: > 100 µM
KM12 colon
  TGI: > 100 µM
CAKI-1 renal
  TGI: > 100 µM
COLO 205 colon
  TGI: > 100 µM
OVCAR-4 ovarian
  TGI: > 100 µM
PC-3 prostate
  TGI: > 100 µM
BT-549 breast
  TGI: 91 µM
SK-OV-3 ovarian
  TGI: > 100 µM
HS 578T breast
  TGI: > 100 µM
DU-145 prostate
  TGI: > 100 µM
LOX IMVI melanoma
  TGI: > 100 µM
RPMI-8226 leukemia
  TGI: > 100 µM
SNB-19 CNS
  TGI: > 100 µM
SF-295 CNS
  TGI: > 100 µM
A549 NSCLC
  TGI: > 100 µM
NCI-H23 lung
  TGI: > 100 µM
CCRF-CEM leukemia
  TGI: > 100 µM
HCT-15 colon
  TGI: > 100 µM
MDA-MB-231 breast
  TGI: > 100 µM
HT29 colon
  TGI: > 100 µM
NCI-H460 lung
  TGI: > 100 µM
MCF7 breast
  TGI: > 100 µM
ACHN renal
  TGI: > 100 µM
HL-60(TB) leukemia
  TGI: > 100 µM
NCI-H226 lung
  TGI: 83.9 µM
TK-10 renal
  TGI: > 100 µM
T-47D breast
  TGI: > 100 µM
U251 CNS
  TGI: > 100 µM
MOLT-4 leukemia
  TGI: > 100 µM
OVCAR-5 ovarian
  TGI: > 100 µM
SW-620 colon
  TGI: > 100 µM
NCI-H522 lung
  TGI: 36.5 µM
SF-268 CNS
  TGI: > 100 µM
RXF 393 renal
  TGI: > 100 µM
SN12C renal
  TGI: > 100 µM
M14 melanoma
  TGI: > 100 µM
UACC-257 melanoma
  TGI: > 100 µM
MDA-MB-435
  TGI: > 100 µM

## CC(=O)NCCCCNCCCNC(C)=O
OVCAR-8 ovarian
  TGI: > 100 µM
SK-MEL-28 melanoma
  TGI: > 100 µM
MDA-N
  TGI: > 100 µM
NCI/ADR-RES ovarian
  TGI: > 100 µM
SK-MEL-5 melanoma
  TGI: > 100 µM
SF-539 CNS
  TGI: > 100 µM
HCT-116 colon
  TGI: > 100 µM
UACC-62 melanoma
  TGI: > 100 µM
K-562 leukemia
  TGI: > 100 µM
A498 renal
  TGI: > 100 µM
IGROV1 ovarian
  TGI: > 100 µM
786-0 renal
  TGI: > 100 µM
EKVX NSCLC
  TGI: > 100 µM
SNB-75 CNS
  TGI: > 100 µM
KM12 colon
  TGI: > 100 µM
CAKI-1 renal
  TGI: > 100 µM
COLO 205 colon
  TGI: > 100 µM
OVCAR-4 ovarian
  TGI: > 100 µM
BT-549 breast
  TGI: > 100 µM
UO-31 renal
  TGI: > 100 µM
SK-OV-3 ovarian
  TGI: > 100 µM
HS 578T breast
  TGI: > 100 µM
DU-145 prostate
  TGI: > 100 µM
LOX IMVI melanoma
  TGI: > 100 µM
RPMI-8226 leukemia
  TGI: > 100 µM
SNB-19 CNS
  TGI: > 100 µM
HOP-92 NSCLC
  TGI: > 100 µM
SF-295 CNS
  TGI: > 100 µM
A549 NSCLC
  TGI: > 100 µM
NCI-H23 lung
  TGI: > 100 µM
CCRF-CEM leukemia
  TGI: > 100 µM
HCT-15 colon
  TGI: > 100 µM
MDA-MB-231 breast
  TGI: > 100 µM
HT29 colon
  TGI: > 100 µM
NCI-H460 lung
  TGI: > 100 µM
MCF7 breast
  TGI: > 100 µM
ACHN renal
  TGI: > 100 µM
MALME-3M melanoma
  TGI: > 100 µM
HL-60(TB) leukemia
  TGI: > 100 µM
NCI-H226 lung
  TGI: > 100 µM
TK-10 renal
  TGI: > 100 µM
T-47D breast
  TGI: > 100 µM
U251 CNS
  TGI: > 100 µM
MOLT-4 leukemia
  TGI: > 100 µM
OVCAR-5 ovarian
  TGI: > 100 µM
HCC-2998 colon
  TGI: > 100 µM
SW-620 colon
  TGI: > 100 µM
NCI-H522 lung
  TGI: > 100 µM
SF-268 CNS
  TGI: > 100 µM
RXF 393 renal
  TGI: > 100 µM
SN12C renal
  TGI: > 100 µM
M14 melanoma
  TGI: > 100 µM
UACC-257 melanoma
  TGI: > 100 µM
MDA-MB-435
  TGI: > 100 µM
